Experiments:
[1] = McKenzie Beechey Mouse Tail Stimulation Test (analgesic activity); assay type: in vivo; conditions: compound active at 16mg/kg
Experimental: The compounds described above were subjected to a Mouse Writhing Test and to the McKenzie Beechey Mouse Tail Stimulation Test (1962, Archives Internationales de Pharmacodynamae et de Therapie, 135) to determine their analgesic activities. The test compounds were prepared as 1.0% solutions in carboxymethylcellulose. The control in all tests was carboxymethylcellulose.

toxicity test (LD50) = conditions: in vivo, species and route not given

CN(C)CCP1(=S)CCCc2ccccc21 (centres unmarked) [Compound 19, 1-(2-N,N-Dimethylamino)ethyl-1-thio-1,2,3,4-tetrahydrophosphinoline]
activity relative to morphine in the Tail Stimulation Test [1]: comparable to morphine | LD50 (toxicity test (LD50)): 170 mg/kg
